Measurements: patent US20200024278A1, “COMPOSITION COMPRISING ANTIBIOTIC COMPOUND AND AN HETEROCYCLIC COMPOUND AND THEIR USE IN PREVENTING OR TREATING BACTERIAL INFECTIONS” (MUTABILIS, priority 2016, published 2020)
Values belong to the compound of their own block, whether it stands above or below them.

Assays:
[1] = system: ECO UFR39; experiment: MIC, broth microdilution (CLSI), substance alone or ATB combined with compound at 4 or 8 μg/mL; type: cell-based, E. coli; settings: Escherichia coli; substance alone; ECO UFR39; read-out: MIC
In short: (§1)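 Broth microdilution; ca-MHB; 5·10^5 CFU/mL; 35° C, 16-20 h; compound alone or fixed 4/8 μg/mL with antibiotic series; endpoint = no visible growth.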

[2] = system: ECO 190317; experiment: as above; type: cell-based, E. coli; settings: Escherichia coli; substance alone; ECO 190317; read-out: MIC
In short: as §1

[3] = system: PAE UFR48; experiment: Fractional Inhibitory Concentration Index, checkerboard assay; type: cell-based, P. aeruginosa
Protocol: (§2) Method 2: Determination of the Fractional Inhibitory Concentration Index
(§3) Serial 2-fold dilutions of each antibiotic tested were prepared in ca-MHB and mixed in each well of a 96-well microtiter plate so that each row (and column) contained a fixed amount of one agent and increasing amounts of the second agent. The range of drug concentrations used in the checkerboard analysis was such that the dilution range encompassed the MIC for each drug used in the analysis. Broth microdilution plates were inoculated with each strain (Table 3) to yield 5.10^5 CFU/mL in a 100 μL final volume and incubated for 18 h at 35° C. in ambient air. Assays including Fosfomycin were supplemented with 25 μg/ml of Glucose-6-phosphate. MICs were determined after overnight incubation, and the fractional inhibitory concentration (FIC) index was calculated for each well. The FIC index (FICI) was calculated for each combination according to the equation FICI=FICa+FICb=(MIC of drug A in combination/MIC of drug A alone)+(MIC of drug B in combination/MIC of drug B alone). The FICI was interpreted as follows: synergy, FICI […]; indifference, 0.5<FIC<4; and antagonism, FICI>4. The checkerboard assays were performed in duplicate.

[4] = system: PAE UFR90; experiment: as above; type: cell-based, P. aeruginosa
Protocol: as §2, §3

[5] = system: SPN 49619; experiment: MIC, broth microdilution (CLSI), substance alone or ATB combined with compound at 4 or 8 μg/mL; type: cell-based, S. pneumoniae; settings: SPN 49619; for MIC: Streptococcus pneumoniae, substance alone, read-out: MIC
In short: as §1

[6] = system: ECL P99; experiment: as above; type: cell-based, E. cloacae; settings: Enterobacter cloacae; substance alone; ECL P99; read-out: MIC
In short: as §1

[7] = system: SAU 29213; experiment: as above; type: cell-based, S. aureus; settings: for MIC ATB combined with compound: SAU 29213; for MIC: Staphylococcus aureus, substance alone, SAU 29213 (MSSA 29213), read-out: MIC
In short: as §1

[8] = system: ECO 190317; experiment: Fractional Inhibitory Concentration Index, checkerboard assay; type: cell-based, E. coli
Protocol: as §2, §3

[9] = system: KPN UFR42; experiment: MIC, broth microdilution (CLSI), substance alone or ATB combined with compound at 4 or 8 μg/mL; type: cell-based, K. pneumoniae; settings: Klebsiella pneumoniae; substance alone; KPN UFR42; read-out: MIC
In short: as §1

[10] = system: KPN BAA-1898; experiment: as above; type: cell-based, K. pneumoniae; settings: Klebsiella pneumoniae, BAA1898; substance alone; KPN BAA-1898; read-out: MIC
In short: as §1

[11] = system: ECL P99; experiment: Fractional Inhibitory Concentration Index, checkerboard assay; type: cell-based, E. cloacae
Protocol: as §2, §3

[12] = system: PAE UFR48; experiment: MIC, broth microdilution (CLSI), substance alone or ATB combined with compound at 4 or 8 μg/mL; type: cell-based, P. aeruginosa; settings: PAE UFR48; for MIC: Pseudomonas aeruginosa, substance alone, read-out: MIC
In short: as §1

[13] = system: PAE 105250; experiment: as above; type: cell-based, P. aeruginosa; settings: PAE 105250; for MIC: Pseudomonas aeruginosa, substance alone, read-out: MIC
In short: as §1

[14] = system: PAE UFR90; experiment: as above; type: cell-based, P. aeruginosa; settings: PAE UFR90; for MIC: Pseudomonas aeruginosa, substance alone, read-out: MIC
In short: as §1

[15] = system: KPN UFR68; experiment: Fractional Inhibitory Concentration Index, checkerboard assay; type: cell-based, K. pneumoniae
Protocol: as §2, §3

Structure (SMILES): NC[C@@H]1C(c2ncco2)=C[C@@H]2CN1C(=O)N2OS(=O)(=O)[O-].O=C(O)C(F)(F)F.[Na+] [Example 5, Sodium and 2,2,2-trifluoroacetate [(2S,5R)-2-(azaniumylmethyl)-7-oxo-3-oxazol-2-yl-1,6-diazabicyclo[3.2.1]oct-3-en-6-yl] Sulfate]
MIC [1]: ≤ 0.016 mg/L
MIC [2]: ≤ 0.016 mg/L
FIC index min ([3]; compound +ATM): 0.34
FIC index min ([3]; compound +FEP): 0.33
FIC index min ([3]; compound +FOS): 0.88
FIC index min ([3]; compound +MEM): 0.63
FIC index min ([3]; compound +PIP): 0.52
FIC index min ([4]; compound +ATM): 0.76
FIC index min ([4]; compound +FEP): 0.69
FIC index min ([4]; compound +FOS): 0.69
FIC index min ([4]; compound +MEM): 0.81
FIC index min ([4]; compound +PIP): 0.56
MIC ATB combined with compound ([5]; ATB ATM, compound @4 μg/ml): >32 mg/L
MIC ATB combined with compound ([5]; ATB FEP, compound @4 μg/ml): 0.063 mg/L
MIC ATB combined with compound ([5]; ATB FOS, compound @4 μg/ml): 16 mg/L
MIC ATB combined with compound ([5]; ATB MEM, compound @4 μg/ml): 0.063 mg/L
MIC ATB combined with compound ([5]; ATB PIP, compound @4 μg/ml): 0.5 mg/L
MIC [5]: > 32 mg/L
MIC [6]: ≤ 0.016 mg/L
MIC ATB combined with compound ([7]; ATB ATM, compound @4 μg/ml): >32 mg/L
MIC ATB combined with compound ([7]; ATB FEP, compound @4 μg/ml): 2 mg/L
MIC ATB combined with compound ([7]; ATB FOS, compound @4 μg/ml): 0.5 mg/L
MIC ATB combined with compound ([7]; ATB MEM, compound @4 μg/ml): <=0.031 μg/mL
MIC ATB combined with compound ([7]; ATB PIP, compound @4 μg/ml): 2 mg/L
MIC [7]: > 32 mg/L
FIC index min ([8]; compound +ATM): 0.52
FIC index min ([8]; compound +FEP): 0.25
FIC index min ([8]; compound +FOS): 0.66
FIC index min ([8]; compound +MEM): 0.76
FIC index min ([8]; compound +PIP): ≤0.56
MIC [9]: 32 mg/L
MIC [10]: 16 mg/L
FIC index min ([11]; compound +ATM): 0.23
FIC index min ([11]; compound +FEP): 0.23
FIC index min ([11]; compound +FOS): 0.16
FIC index min ([11]; compound +MEM): 0.63
FIC index min ([11]; compound +PIP): 0.32
MIC ATB combined with compound ([12]; ATB ATM, compound @4 μg/ml): <0.031 mg/L
MIC ATB combined with compound ([12]; ATB FEP, compound @4 μg/ml): <0.031 mg/L
MIC ATB combined with compound ([12]; ATB FOS, compound @4 μg/ml): 4 mg/L
MIC ATB combined with compound ([12]; ATB MEM, compound @4 μg/ml): <0.031 mg/L
MIC ATB combined with compound ([12]; ATB PIP, compound @4 μg/ml): <0.031 mg/L
MIC [12]: 2 mg/L
MIC ATB combined with compound ([13]; ATB ATM, compound @4 μg/ml): <0.031 mg/L
MIC ATB combined with compound ([13]; ATB FEP, compound @4 μg/ml): <0.031 mg/L
MIC ATB combined with compound ([13]; ATB FOS, compound @4 μg/ml): 16 mg/L
MIC ATB combined with compound ([13]; ATB MEM, compound @4 μg/ml): <0.031 mg/L
MIC ATB combined with compound ([13]; ATB PIP, compound @4 μg/ml): <0.031 mg/L
MIC [13]: 4 mg/L
MIC ATB combined with compound ([14]; ATB ATM, compound @4 μg/ml): <0.031 mg/L
MIC ATB combined with compound ([14]; ATB FEP, compound @4 μg/ml): <0.031 mg/L
MIC ATB combined with compound ([14]; ATB FOS, compound @4 μg/ml): <0.125 mg/L
MIC ATB combined with compound ([14]; ATB MEM, compound @4 μg/ml): <0.031 mg/L
MIC ATB combined with compound ([14]; ATB PIP, compound @4 μg/ml): <0.031 mg/L
MIC [14]: 0.25 mg/L
FIC index min ([15]; compound +ATM): ≤0.008
FIC index min ([15]; compound +FEP): ≤0.0098
FIC index min ([15]; compound +FOS): 0.203
FIC index min ([15]; compound +MEM): 0.020
FIC index min ([15]; compound +PIP): ≤0.035

MIC [1]: 4 mg/L
MIC [2]: 4 mg/L
MIC ATB combined with compound ([5]; ATB ATM, compound @8 μg/ml): <=0.031 μg/mL
MIC ATB combined with compound ([5]; ATB FEP, compound @8 μg/ml): <0.031 mg/L
MIC ATB combined with compound ([5]; ATB FOS, compound @8 μg/ml): <0.125 mg/L
MIC ATB combined with compound ([5]; ATB MEM, compound @8 μg/ml): <0.031 mg/L
MIC ATB combined with compound ([5]; ATB PIP, compound @8 μg/ml): <0.031 mg/L
MIC [5]: 4 mg/L
MIC [6]: 8 mg/L
MIC ATB combined with compound ([7]; ATB ATM, compound @8 μg/ml): <0.031 mg/L
MIC ATB combined with compound ([7]; ATB FEP, compound @8 μg/ml): <=0.031 μg/mL
MIC ATB combined with compound ([7]; ATB FOS, compound @8 μg/ml): 0.25 mg/L
MIC ATB combined with compound ([7]; ATB MEM, compound @8 μg/ml): <0.031 mg/L
MIC ATB combined with compound ([7]; ATB PIP, compound @8 μg/ml): <0.031 mg/L
MIC [7]: 8 mg/L
MIC [9]: 16 mg/L
MIC [10]: 8 mg/L
MIC ATB combined with compound ([12]; ATB ATM, compound @8 μg/ml): 16 mg/L
MIC ATB combined with compound ([12]; ATB FEP, compound @8 μg/ml): 32 mg/L
MIC ATB combined with compound ([12]; ATB FOS, compound @8 μg/ml): 32 mg/L
MIC ATB combined with compound ([12]; ATB MEM, compound @8 μg/ml): 4 mg/L
MIC ATB combined with compound ([12]; ATB PIP, compound @8 μg/ml): >32 mg/L
MIC [12]: > 128 mg/L
MIC ATB combined with compound ([13]; ATB ATM, compound @8 μg/ml): 8 mg/L
MIC ATB combined with compound ([13]; ATB FEP, compound @8 μg/ml): 4 mg/L
MIC ATB combined with compound ([13]; ATB FOS, compound @8 μg/ml): 128 mg/L
MIC ATB combined with compound ([13]; ATB MEM, compound @8 μg/ml): 2 mg/L
MIC ATB combined with compound ([13]; ATB PIP, compound @8 μg/ml): >32 mg/L
MIC [13]: > 32 mg/L
MIC ATB combined with compound ([14]; ATB ATM, compound @8 μg/ml): 16 mg/L
MIC ATB combined with compound ([14]; ATB FEP, compound @8 μg/ml): 4 mg/L
MIC ATB combined with compound ([14]; ATB FOS, compound @8 μg/ml): 8 mg/L
MIC ATB combined with compound ([14]; ATB MEM, compound @8 μg/ml): 2 mg/L
MIC ATB combined with compound ([14]; ATB PIP, compound @8 μg/ml): >32 mg/L
MIC [14]: > 128 mg/L
Structure (SMILES): O=C1N2CC(c3cccnc3)=CC(C2)N1OS(=O)(=O)[O-].[Na+] (stereo not drawn) [Example 8, sodium [3-(3-pyridyl)-7-oxo-1,6-diazabicyclo[3.2.1]oct-3-en-6-yl] sulfate]
FIC index min ([3]; compound +ATM): ≤0.13
FIC index min ([3]; compound +FEP): ≤0.5
FIC index min ([3]; compound +FOS): ≤0.25
FIC index min ([3]; compound +MEM): 1.0
FIC index min ([3]; compound +PIP): ≤0.31
FIC index min ([4]; compound +ATM): ≤0.75
FIC index min ([4]; compound +FEP): ≤0.25
FIC index min ([4]; compound +FOS): ≤0.62
FIC index min ([4]; compound +MEM): ≤0.56
FIC index min ([4]; compound +PIP): ≤0.25
FIC index min ([8]; compound +ATM): 0.13
FIC index min ([8]; compound +FEP): 0.13
FIC index min ([8]; compound +FOS): 0.63
FIC index min ([8]; compound +MEM): 0.57
FIC index min ([8]; compound +PIP): ≤0.14
FIC index min ([11]; compound +ATM): 0.53
FIC index min ([11]; compound +FEP): 0.25
FIC index min ([11]; compound +FOS): ≤0.28
FIC index min ([11]; compound +MEM): 0.75
FIC index min ([11]; compound +PIP): 0.16
FIC index min ([15]; compound +ATM): ≤0.07
FIC index min ([15]; compound +FEP): ≤0.08
FIC index min ([15]; compound +FOS): 0.75
FIC index min ([15]; compound +MEM): ≤0.07
FIC index min ([15]; compound +PIP): ≤0.07
